# Laboratory results: patent publication US20050255537A1, “Method for monitoring treatment with a parathyroid hormone” (priority 1999, published 2005)
# Test system: postmenopausal women
# Assay: Example 4 population pharmacodynamic models of total lumbar spine and femoral neck BMD
# Type: in vivo, human
# From the text: Data from the studies described in Examples 1-3 above were further analyzed to develop more detailed models for the use of bone markers in monitoring and predicting effects of PTH on clinically significant correlates of efficacy in the treatment of osteoporosis, such as bone mineral density (BMD). Population pharmacodynamic (PD) models were developed to describe total lumbar spine and femoral neck bone mineral density (BMD) responses in ˜1500 postmenopausal women enrolled in a phase 3 study of LY333334 [rhPTH(1-34)]. Serum LY333334 (LY), procollagen 1 carboxy-terminal propeptide (PICP) and bone specific alkaline phosphatase (B SAP) concentrations, and urinary excretion of N-telopeptide (NTX) and free deoxypyridinoline (DPD) were also measured in a subset of ˜350 patients. LY dose, average steady-state LY concentration, and early changes in markers of bone turnover were each evaluated for their ability to predict subsequent changes in BMD. […] Response was greatest in patients with increased fracture risk (i.e., older women with low BMD, low body weight, and high bone turnover at baseline). In the subset analysis, PICP was the strongest indicator of BMD response; an increase >101 pM after 1 month of therapy was always associated with a gain in spine BMD. NTX was also a better predictor of increase in BMD than LY dose, but dose predicted BMD response better than LY, BSAP or DPD concentrations (p<0.001).
# Population pharmacodynamic models were developed individually for total lumber spine BMD, femoral neck BMD, procollagen 1 carboxy-terminal propeptide (PICP), bone specific alkaline phosphate (BSAP), urinary N-telopeptide (NTX), and urinary free deoxypyridinoline (DPD). These treatment-response models characterized change in the pharmacodynamic endpoints and identified significant patient factors influencing response to therapy.
# The final treatment-response models for total lumbar spine and femoral neck BMD were used to calculate BMD values after 21 months of treatment for each patient, based on the individual's parameter estimates (empirical Bayesian estimates). Similarly, the final treatment-response models for each biochemical maker (PICP, BSAP, NTX, and DPD) were used to calculate concentration values after 1 month of treatment for each patient. These predicted BMD measurements were merged with the predicted biochemical marker concentrations for patients who completed at least 12 months of LY333334 therapy.
# Biochemical marker response-indicator models were developed to characterize the relationship between the biochemical marker concentrations at 1 month and response to therapy, as measured by change in total lumbar spine and femoral neck BMD.
# Population pharmacodynamic analyses were undertaken to evaluate the time course of the relationships between efficacy measures and LY333334 dose or LY333334 concentrations. […] As a part of this assessment, a population placebo-response model describing the change in BMD in patients randomly assigned to placebo (supplemented with calcium and vitamin D) was first developed. Patient-specific factors that explained some of the variability of that model were identified and included in the model. A pharmacodynamic model describing the therapeutic response was then developed for patients randomly assigned to LY333334 treatment using the placebo-response model as the baseline function. Thus, the progression of bone loss that occurs in osteoporosis patients receiving only calcium and vitamin D supplementation was separated from the effects of LY333334 treatment.
# [1] = 21 months, 20 and 40 μg groups together
structure (smiles),measurement,setting,value
CC[C@H](C)[C@H](NC(=O)[C@H](CCC(=O)O)NC(=O)[C@H](CO)NC(=O)[C@@H](NC(=O)[C@@H](N)CO)C(C)C)C(=O)N[C@@H](CCC(N)=O)C(=O)N[C@@H](CC(C)C)C(=O)N[C@@H](CCSC)C(=O)N[C@@H](Cc1cnc[nH]1)C(=O)N[C@@H](CC(N)=O)C(=O)N[C@@H](CC(C)C)C(=O)NCC(=O)N[C@@H](CCCCN)C(=O)N[C@@H](Cc1cnc[nH]1)C(=O)N[C@@H](CC(C)C)C(=O)N[C@@H](CC(N)=O)C(=O)N[C@@H](CO)C(=O)N[C@@H](CCSC)C(=O)N[C@@H](CCC(=O)O)C(=O)N[C@@H](CCCN=C(N)N)C(=O)N[C@H](C(=O)N[C@@H](CCC(=O)O)C(=O)N[C@@H](Cc1c[nH]c2ccccc12)C(=O)N[C@@H](CC(C)C)C(=O)N[C@@H](CCCN=C(N)N)C(=O)N[C@@H](CCCCN)C(=O)N[C@@H](CCCCN)C(=O)N[C@@H](CC(C)C)C(=O)N[C@@H](CCC(N)=O)C(=O)N[C@@H](CC(=O)O)C(=O)N[C@H](C(=O)N[C@@H](Cc1cnc[nH]1)C(=O)N[C@@H](CC(N)=O)C(=O)N[C@@H](Cc1ccccc1)C(=O)O)C(C)C)C(C)C [LY333334],final PD model predicted increase in hip (femoral neck) BMD,"40 μg/day, 21 months",~5.2%
same,final PD model predicted increase in total lumbar spine BMD,"40 μg/day, 21 months",~14.6%
same,treatment group model change from mean baseline femoral neck BMD,"20-μg group, 21 months",2.8%
same,treatment group model change from mean baseline spine BMD,"20-μg group, 21 months",10.5%
same,treatment group model predicted change in femoral neck BMD,"20-μg group, 21 months",0.018 g/cm^2
same,treatment group model predicted change in spine BMD,"20-μg group, 21 months",0.086 g/cm^2
same,base model change from mean baseline femoral neck BMD,[1],4.2%
same,base model change from mean baseline spine BMD,[1],12.6%
same,"base model predicted increase in femoral neck BMD, typical treated patient","21 months, 20 and 40 μg groups together, 272 patients",0.027 g/cm^2
same,"base model predicted increase in spine BMD, typical treated patient","21 months, 20 and 40 μg groups together, 276 patients",0.103 g/cm^2
same,treatment group model change from mean baseline femoral neck BMD,"40-μg group, 21 months",5.3%
same,treatment group model change from mean baseline spine BMD,"40-μg group, 21 months",14.8%
same,treatment group model predicted change in femoral neck BMD,"40-μg group, 21 months",0.034 g/cm^2
same,treatment group model predicted change in spine BMD,"40-μg group, 21 months",0.121 g/cm^2
same,subjects with a negative BMD response (spine BMD<0.00 g/cm^2),"from a total of 272, 21 months, FIG. 11",four
